PMC10800876, “Evaluation of proline-rich antimicrobial peptides as potential lead structures for novel antimycotics against Cryptococcus neoformans” (Frontiers in Microbiology, 2024)
Values after ≈ are worked out from the molar mass of the structure shown. Like-named read-outs stand apart in the source and are kept apart here. Non-standard residues stand in square brackets, D forms with d. Residues, ends and D or L forms follow the SMILES beside them. Orn = NCCC[C@H](N)C(=O)O

Assays:
[1] = test system: C. neoformans KN99α (serotype A, mating type MATα)
[2] = test system: C. neoformans 1841 (serotype D); conditions: for MIC (mg/L) 1841 24 h / MIC (mg/L) 1841 48 h: 50% SAB in phosphate buffer
[3] = test system: C. neoformans H99 (serotype A)
[4] = test system: C. neoformans strains 1841, H99, and KN99α; experiment: Broth microdilution assay (MIC); format: cell-based, Cryptococcus neoformans; conditions: strains 1841, H99, and KN99α, 24 h
[5] = KN99α (serotype A, mating type MATα, 24 h)
[6] = KN99α (serotype A, mating type MATα, 48 h)
[7] = 1841 (serotype D, 24 h, pH 7.5)
[8] = 1841 (serotype D, 48 h, pH 7.5)
[9] = broth microdilution, 30°C, read after 24 h, n = 6
[10] = broth microdilution, 30°C, read after 48 h, n = 6
[11] = broth microdilution, 50% SAB in phosphate buffer, 30°C, read after 24 h, n = 6
[12] = broth microdilution, 50% SAB in phosphate buffer, 30°C, read after 48 h, n = 6
[13] = broth microdilution, 50% SAB in phosphate buffer pH 7.5, 5 × 10^4 CFU/mL, 30°C, read after 24 h, mean of six replicates (n = 6)
[14] = broth microdilution, 50% SAB in phosphate buffer pH 7.5, 5 × 10^4 CFU/mL, 30°C, read after 48 h, n = 6

Compound | MIC (μmol/L) KN99α 24 h [1, 5] | MIC (μmol/L) KN99α 48 h [1, 6] | MIC (μmol/L) 1841 24 h [2, 7] | MIC (μmol/L) 1841 48 h [2, 8] | MIC (μmol/L) H99 24 h ([3]; H99 (serotype A, 24 h)) | MIC (μmol/L) H99 48 h ([3]; H99 (serotype A, 48 h)) | MIC (mg/L) 1841 24 h [2, 9] | MIC (mg/L) 1841 48 h [2, 10] | MIC (μmol/L) KN99α 24 h [1, 11] | MIC (μmol/L) KN99α 48 h [1, 12] | MIC (μmol/L) 1841 24 h [2, 13] | MIC (μmol/L) 1841 48 h [2, 14] | MIC (μmol/L) H99 24 h [3, 11] | MIC (μmol/L) H99 48 h [3, 12] | MIC (mg/L) KN99α 24 h [1, 5] | other results
CC[C@H](C)[C@H](NC(=O)[C@H](Cc1ccc(O)cc1)NC(=O)[C@H](CC(N)=O)NC(=O)[C@@H](N)CCCN)C(=O)N[C@@H](CCCN)C(=O)N[C@@H](CCCNC(=N)N)C(=O)N1CCC[C@H]1C(=O)N1CCC[C@H]1C(=O)N[C@@H](CCCNC(=N)N)C(=O)N1CCC[C@H]1C(=O)N[C@@H](CCCNC(=N)N)C(=O)N1CCC[C@H]1C(=O)N[C@@H](CC(C)C)C(=O)N[C@@H](Cc1ccc(O)cc1)C(=O)N1CCC[C@H]1C(=O)N1CCC[C@H]1C(=O)N[C@@H](CCCCN)C(=O)N[C@@H](CC(=O)O)C(=O)N[C@H](C(N)=O)C(C)C [Onc72 rev] (H-[Orn]NYI[Orn]RPPRPRPLYPPKDV-NH2) | 28 µmol/L (≈ 64.6 µg/mL) | 56 µmol/L (≈ 129 µg/mL) | 28 µmol/L (≈ 64.6 µg/mL) | 56 µmol/L (≈ 129 µg/mL) | 28 µmol/L (≈ 64.6 µg/mL) | 56 µmol/L (≈ 129 µg/mL) | – | – | – | – | – | – | – | – | – | –
CC[C@H](C)[C@H](NC(=O)[C@H](CCCN)NC(=O)[C@H](CCCNC(=N)N)NC(=O)[C@@H]1CCCN1C(=O)[C@@H]1CCCN1C(=O)[C@H](CCCNC(=N)N)NC(=O)[C@@H]1CCCN1C(=O)[C@H](CCCNC(=N)N)NC(=O)[C@@H]1CCCN1C(=O)[C@H](CC(C)C)NC(=O)[C@H](Cc1ccc(O)cc1)NC(=O)[C@@H]1CCCN1C(=O)[C@@H]1CCCN1C(=O)[C@H](CCCCN)NC(=O)[C@H](CC(=O)O)NC(=O)[C@@H](N)C(C)C)C(=O)N[C@@H](Cc1ccc(O)cc1)C(=O)N[C@@H](CC(N)=O)C(=O)N[C@@H](CCCN)C(N)=O [Onc72] (H-VDKPPYLPRPRPPR[Orn]IYN[Orn]-NH2; N-terminus and C-terminus assumed) | 14 to 28 µmol/L | 56 µmol/L (≈ 129 µg/mL) | 28 µmol/L (≈ 64.6 µg/mL) | 56 µmol/L (≈ 129 µg/mL) | 14 µmol/L (≈ 32.3 µg/mL) | 28 to 56 µmol/L | 64 mg/L (≈ 27.8 µM) | 128 mg/L (≈ 55.5 µM) | – | – | – | – | – | – | 32 to 64 mg/L | MIC (mg/L) H99 48 h ([3]; H99 (serotype A, 48 h)): 64 to 128 mg/L
CC[C@H](C)[C@H](NC(=O)[C@@H](CCCNC(=N)N)NC(=O)[C@H](CCCNC(=N)N)NC(=O)[C@@H]1CCCN1C(=O)[C@@H]1CCCN1C(=O)[C@H](CCCNC(=N)N)NC(=O)[C@@H]1CCCN1C(=O)[C@H](CCCNC(=N)N)NC(=O)[C@@H]1CCCN1C(=O)[C@H](CC(C)C)NC(=O)[C@H](Cc1ccc(O)cc1)NC(=O)[C@@H]1CCCN1C(=O)[C@@H]1CCCN1C(=O)[C@H](CCCCN)NC(=O)[C@H](CC(=O)O)NC(=O)[C@@H](N)C(C)C)C(=O)N[C@@H](Cc1ccc(O)cc1)C(=O)N[C@@H](CC(N)=O)C(=O)N[C@H](CCCNC(=N)N)C(N)=O [Onc112] (H-VDKPPYLPRPRPPR[dR]IYN[dR]-NH2) | 3.3 to 6.7 µmol/L | 6.7 to 13 µmol/L | 3.3 µmol/L (≈ 7.89 µg/mL) | 6.7 µmol/L (≈ 16 µg/mL) | 3.3 to 6.7 µmol/L | 6.7 µmol/L (≈ 16 µg/mL) | – | – | – | – | – | – | – | – | 8 to 16 mg/L | MIC [4]: 1.6 to 6.7 µM; MIC (mg/L) KN99α 48 h [1, 6]: 16 to 32 mg/L; MIC (mg/L) H99 24 h ([3]; H99 (serotype A, 24 h)): 8 to 16 mg/L

Further lines, with some results ahead:

MIC (μmol/L) KN99α 24 h [1, 5] | MIC (μmol/L) KN99α 48 h [1, 6] | MIC (μmol/L) 1841 24 h [2, 7] | MIC (μmol/L) 1841 48 h [2, 8] | MIC (μmol/L) H99 24 h ([3]; H99 (serotype A, 24 h)) | MIC (μmol/L) H99 48 h ([3]; H99 (serotype A, 48 h)) | MIC (mg/L) 1841 24 h [2, 9] | MIC (mg/L) 1841 48 h [2, 10] | MIC (μmol/L) KN99α 24 h [1, 11] | MIC (μmol/L) KN99α 48 h [1, 12] | MIC (μmol/L) 1841 24 h [2, 13] | MIC (μmol/L) 1841 48 h [2, 14] | MIC (μmol/L) H99 24 h [3, 11] | MIC (μmol/L) H99 48 h [3, 12] | Compound | MIC (mg/L) KN99α 24 h [1, 5] | other results
– | – | – | – | – | – | – | – | 7.0 µmol/L | 14 µmol/L | 7.0 µmol/L | 7.0 µmol/L | 7.0 µmol/L | 14 µmol/L | gu-LRPHPPRPRPIYVPRNNO-NH2 [Api88 rev] | – | –
– | – | – | – | – | – | 8 mg/L | 8 mg/L | – | – | 3.1 µmol/L | 3.1 µmol/L | – | – | gu-OIOIORPVYOPRPRPPHPRR-OH [Api813] | – | MIC (mg/L) KN99α 24 h [1, 11]: 4 to 8 mg/L; MIC (mg/L) KN99α 48 h [1, 12]: 8 mg/L; MIC (mg/L) H99 24 h [3, 11]: 4 mg/L; MIC (mg/L) H99 48 h [3, 12]: 4 to 8 mg/L
– | – | – | – | – | – | 16 mg/L | 32 to 64 mg/L | 28 µmol/L | 56 µmol/L | 7.0 µmol/L | 14 to 28 µmol/L | 28 µmol/L | 56 µmol/L | gu-OPNRYIRPRLPPHPNRPV-NH2 [Api88 scr] | – | –
